Data published in ChEMBL document CHEMBL5726350, “Histone demethylase inhibitors” (2017).

What was measured:
[1] = target: Lysine-specific demethylase 5A (Homo sapiens, UniProt P29375); assay: Enzymatic Assay: The enzymatic assay of Jarid1A activity is based upon Time Resolved-Fluorescence Resonance Energy Transfer (TR-FRET) detection. The ability of test compounds to inhibit the activity of Jarid1A was determined in 384-well plate format under the following reaction conditions: 1 nM Jarid1A, 300 nM H3K4me3-biotin labeled peptide (Anaspec cat #64357), 2 μM alpha-ketoglutaric acid in assay buffer of 50 mM HEPES, pH7.3, 0.005% Brij35, 0.5 mM TCEP, 0.2 mg/ml BSA, 50 μM sodium L-ascorbate, and 2 μM ammonium iron(II) sulfate. Reaction product was determined quantitatively by TR-FRET after the addition of detection reagent Phycolink Streptavidin-allophycocyanin (Prozyme) and Europium-anti-mono- or di-methylated histone H3 lysine 4 (H3K4me1-2) antibody (PerkinElmer) in the presence of 5 mM EDTA in LANCE detection buffer (PerkinElmer) at a final concentration of 25 nM and 1 nM, respectively.The assay reaction was initiated by the following: 2 μl of the mixture of 900 nM H3K4me3-biotin labeled peptide and 6 μM alpha-ketoglutaric acid with 2 μl of 11-point serial diluted inhibitor in 3% DMSO was added to each well of plate, followed by the addition of 2 μl of 3 nM Jarid1A to initiate the reaction.
Lysine-specific demethylase 5A, sequence (P29375 whole entry): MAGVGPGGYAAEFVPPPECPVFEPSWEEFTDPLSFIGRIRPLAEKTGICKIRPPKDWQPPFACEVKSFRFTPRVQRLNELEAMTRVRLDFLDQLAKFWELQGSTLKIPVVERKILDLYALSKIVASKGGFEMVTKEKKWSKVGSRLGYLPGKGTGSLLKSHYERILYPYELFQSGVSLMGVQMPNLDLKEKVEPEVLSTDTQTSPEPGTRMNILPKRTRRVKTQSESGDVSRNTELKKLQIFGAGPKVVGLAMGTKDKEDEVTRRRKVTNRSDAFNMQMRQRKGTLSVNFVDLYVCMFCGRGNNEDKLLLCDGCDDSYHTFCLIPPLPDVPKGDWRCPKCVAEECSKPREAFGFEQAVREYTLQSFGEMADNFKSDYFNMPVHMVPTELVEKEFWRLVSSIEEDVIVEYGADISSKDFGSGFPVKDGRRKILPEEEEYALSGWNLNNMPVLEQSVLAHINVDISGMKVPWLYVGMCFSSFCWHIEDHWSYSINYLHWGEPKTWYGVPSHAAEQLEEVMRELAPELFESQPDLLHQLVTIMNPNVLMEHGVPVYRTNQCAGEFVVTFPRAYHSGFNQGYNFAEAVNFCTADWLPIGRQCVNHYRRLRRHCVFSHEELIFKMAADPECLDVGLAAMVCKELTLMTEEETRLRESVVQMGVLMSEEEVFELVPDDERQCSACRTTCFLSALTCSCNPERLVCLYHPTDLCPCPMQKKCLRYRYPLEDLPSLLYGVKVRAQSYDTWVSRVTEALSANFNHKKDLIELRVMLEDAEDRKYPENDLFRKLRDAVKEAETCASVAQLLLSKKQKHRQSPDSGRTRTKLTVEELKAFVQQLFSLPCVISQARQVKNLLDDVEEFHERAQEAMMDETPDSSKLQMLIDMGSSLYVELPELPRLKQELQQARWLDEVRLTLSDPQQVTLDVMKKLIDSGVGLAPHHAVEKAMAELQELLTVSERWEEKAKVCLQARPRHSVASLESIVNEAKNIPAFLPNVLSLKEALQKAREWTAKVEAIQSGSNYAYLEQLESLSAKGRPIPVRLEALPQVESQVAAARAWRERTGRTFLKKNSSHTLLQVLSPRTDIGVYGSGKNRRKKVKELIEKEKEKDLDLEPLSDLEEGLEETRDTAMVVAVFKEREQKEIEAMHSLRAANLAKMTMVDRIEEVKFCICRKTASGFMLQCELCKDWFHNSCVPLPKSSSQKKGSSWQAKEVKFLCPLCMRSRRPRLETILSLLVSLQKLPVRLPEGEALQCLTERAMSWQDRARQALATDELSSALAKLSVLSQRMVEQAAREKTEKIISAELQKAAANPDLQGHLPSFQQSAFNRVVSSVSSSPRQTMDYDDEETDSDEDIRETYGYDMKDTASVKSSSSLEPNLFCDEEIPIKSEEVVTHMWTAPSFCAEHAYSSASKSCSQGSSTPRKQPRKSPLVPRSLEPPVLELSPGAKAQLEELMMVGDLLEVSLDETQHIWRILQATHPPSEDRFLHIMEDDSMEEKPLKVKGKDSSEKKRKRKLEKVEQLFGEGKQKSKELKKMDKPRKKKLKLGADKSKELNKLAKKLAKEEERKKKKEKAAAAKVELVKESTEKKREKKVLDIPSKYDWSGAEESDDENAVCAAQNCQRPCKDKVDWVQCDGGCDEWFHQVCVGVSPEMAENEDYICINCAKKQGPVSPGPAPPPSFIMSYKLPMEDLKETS

[2] = target: Lysine-specific demethylase 5B (Homo sapiens, UniProt Q9UGL1); assay: Enzymatic Assay: The ability of test compounds to inhibit the activity of Jarid1B was determined in 384-well plate format under the following reaction conditions: 0.8 nM Jarid1B, 300 nM H3K4me3-biotin labeled peptide (Anaspec cat #64357), 2 μM alpha-ketoglutaric acid in assay buffer of 50 mM HEPES, pH7.3, 0.005% Brij35, 0.5 mM TCEP, 0.2 mg/ml BSA, 50 μM sodium L-ascorbate, and 2 μM ammonium iron(II) sulfate. Reaction product was determined quantitatively by TR-FRET after the addition of detection reagent Phycolink Streptavidin-allophycocyanin (Prozyme) and Europium-anti-mono- or di-methylated histone H3 lysine 4 (H3K4me1-2) antibody (PerkinElmer) in the presence of 5 mM EDTA in LANCE detection buffer (PerkinElmer) at a final concentration of 25 nM and 1 nM, respectively.The assay reaction was initiated by the following: 2 μl of the mixture of 900 nM H3K4me3-biotin labeled peptide and 6 μM alpha-ketoglutaric acid with 2 μl of 11-point serial diluted inhibitor in 3% DMSO was added to each well of the plate, followed by the addition of 2 μl of 2.4 nM Jarid1B to initiate the reaction. The reaction mixture was incubated at room temperature for 30 minutes, and terminated by the addition of 6 μl of 5 mM EDTA in LANCE detection buffer containing 50 nM Phycolink Streptavidin-allophycocyanin and 2 nM Europium-anti-H3K4me1-2 antibody.
Lysine-specific demethylase 5B, sequence (Q9UGL1 whole entry): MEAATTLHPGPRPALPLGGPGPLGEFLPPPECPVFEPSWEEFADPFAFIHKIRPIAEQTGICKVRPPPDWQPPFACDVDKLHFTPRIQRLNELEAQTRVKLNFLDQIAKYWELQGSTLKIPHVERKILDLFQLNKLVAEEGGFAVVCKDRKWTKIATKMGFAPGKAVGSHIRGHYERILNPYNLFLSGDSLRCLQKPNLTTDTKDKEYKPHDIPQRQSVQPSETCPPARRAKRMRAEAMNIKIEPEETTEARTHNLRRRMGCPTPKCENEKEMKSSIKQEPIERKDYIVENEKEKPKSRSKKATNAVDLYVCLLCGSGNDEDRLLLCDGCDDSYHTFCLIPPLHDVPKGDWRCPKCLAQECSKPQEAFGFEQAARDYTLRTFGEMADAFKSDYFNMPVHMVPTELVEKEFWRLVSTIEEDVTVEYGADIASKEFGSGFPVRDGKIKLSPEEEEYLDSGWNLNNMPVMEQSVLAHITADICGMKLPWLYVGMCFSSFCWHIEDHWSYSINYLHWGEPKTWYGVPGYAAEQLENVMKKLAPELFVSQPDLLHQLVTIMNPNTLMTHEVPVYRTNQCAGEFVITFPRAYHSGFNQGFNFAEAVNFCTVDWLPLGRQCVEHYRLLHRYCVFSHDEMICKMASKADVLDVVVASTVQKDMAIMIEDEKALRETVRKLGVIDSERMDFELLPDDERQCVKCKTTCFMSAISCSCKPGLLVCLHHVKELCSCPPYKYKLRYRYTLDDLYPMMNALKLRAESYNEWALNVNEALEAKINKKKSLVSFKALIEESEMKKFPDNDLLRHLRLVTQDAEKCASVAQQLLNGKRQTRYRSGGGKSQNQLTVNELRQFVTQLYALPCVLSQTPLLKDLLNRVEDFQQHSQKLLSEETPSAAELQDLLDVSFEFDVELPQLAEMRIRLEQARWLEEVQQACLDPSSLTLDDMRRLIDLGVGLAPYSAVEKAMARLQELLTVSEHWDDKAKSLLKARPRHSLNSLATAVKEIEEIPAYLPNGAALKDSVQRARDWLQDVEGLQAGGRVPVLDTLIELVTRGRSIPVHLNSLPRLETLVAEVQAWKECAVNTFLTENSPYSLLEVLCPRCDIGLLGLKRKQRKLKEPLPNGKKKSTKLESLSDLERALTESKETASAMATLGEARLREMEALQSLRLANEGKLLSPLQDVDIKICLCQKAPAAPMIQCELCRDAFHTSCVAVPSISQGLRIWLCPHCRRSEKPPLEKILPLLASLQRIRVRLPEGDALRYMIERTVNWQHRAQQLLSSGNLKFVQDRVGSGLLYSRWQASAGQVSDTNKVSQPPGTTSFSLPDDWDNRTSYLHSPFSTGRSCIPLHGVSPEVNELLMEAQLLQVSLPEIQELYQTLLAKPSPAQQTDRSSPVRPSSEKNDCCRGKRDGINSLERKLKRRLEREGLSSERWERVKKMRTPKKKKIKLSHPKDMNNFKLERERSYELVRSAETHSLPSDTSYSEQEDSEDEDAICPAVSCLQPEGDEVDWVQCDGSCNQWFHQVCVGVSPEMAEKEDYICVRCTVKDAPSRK

[3] = target: T1, Lysine-specific demethylase 4C (Homo sapiens, UniProt Q9H3R0); assay: Enzymatic Assay: The ability of test compounds to inhibit the activity of JMJD2C was determined in 384-well plate format under the following reaction conditions: 0.3 nM JMJD2C, 300 nM H3K9me3-biotin labeled peptide (Anaspec cat #64360), 2 μM alpha-ketoglutaric acid in assay buffer of 50 mM HEPES, pH7.3, 0.005% Brij35, 0.5 mM TCEP, 0.2 mg/ml BSA, 50 μM sodium L-ascorbate, and 2 μM ammonium iron(II) sulfate. Reaction product was determined quantitatively by TR-FRET after the addition of detection reagent Phycolink Streptavidin-allophycocyanin (Prozyme) and Europium-anti-di-methylated histone H3 lysine 9 (H3K9me2) antibody (PerkinElmer) in the presence of 5 mM EDTA in LANCE detection buffer (PerkinElmer) at a final concentration of 50 nM and 1 nM, respectively.The assay reaction was initiated by the following: 2 μl of the mixture of 900 nM H3K9me3-biotin labeled peptide and 6 μM alpha-ketoglutaric acid with 2 μl of 11-point serial diluted inhibitor in 3% DMSO were added to each well of the plate, followed by the addition of 2 μl of 0.9 nM JMJD2C to initiate the reaction. The reaction mixture was incubated at room temperature for 30 minutes, and terminated by the addition of 6 μl of 5 mM EDTA in LANCE detection buffer containing 100 nM Phycolink Streptavidin-allophycocyanin and 2 nM Europium-anti-H3K9me2 antibody. […]
T1 sequence (Q9H3R0 whole entry): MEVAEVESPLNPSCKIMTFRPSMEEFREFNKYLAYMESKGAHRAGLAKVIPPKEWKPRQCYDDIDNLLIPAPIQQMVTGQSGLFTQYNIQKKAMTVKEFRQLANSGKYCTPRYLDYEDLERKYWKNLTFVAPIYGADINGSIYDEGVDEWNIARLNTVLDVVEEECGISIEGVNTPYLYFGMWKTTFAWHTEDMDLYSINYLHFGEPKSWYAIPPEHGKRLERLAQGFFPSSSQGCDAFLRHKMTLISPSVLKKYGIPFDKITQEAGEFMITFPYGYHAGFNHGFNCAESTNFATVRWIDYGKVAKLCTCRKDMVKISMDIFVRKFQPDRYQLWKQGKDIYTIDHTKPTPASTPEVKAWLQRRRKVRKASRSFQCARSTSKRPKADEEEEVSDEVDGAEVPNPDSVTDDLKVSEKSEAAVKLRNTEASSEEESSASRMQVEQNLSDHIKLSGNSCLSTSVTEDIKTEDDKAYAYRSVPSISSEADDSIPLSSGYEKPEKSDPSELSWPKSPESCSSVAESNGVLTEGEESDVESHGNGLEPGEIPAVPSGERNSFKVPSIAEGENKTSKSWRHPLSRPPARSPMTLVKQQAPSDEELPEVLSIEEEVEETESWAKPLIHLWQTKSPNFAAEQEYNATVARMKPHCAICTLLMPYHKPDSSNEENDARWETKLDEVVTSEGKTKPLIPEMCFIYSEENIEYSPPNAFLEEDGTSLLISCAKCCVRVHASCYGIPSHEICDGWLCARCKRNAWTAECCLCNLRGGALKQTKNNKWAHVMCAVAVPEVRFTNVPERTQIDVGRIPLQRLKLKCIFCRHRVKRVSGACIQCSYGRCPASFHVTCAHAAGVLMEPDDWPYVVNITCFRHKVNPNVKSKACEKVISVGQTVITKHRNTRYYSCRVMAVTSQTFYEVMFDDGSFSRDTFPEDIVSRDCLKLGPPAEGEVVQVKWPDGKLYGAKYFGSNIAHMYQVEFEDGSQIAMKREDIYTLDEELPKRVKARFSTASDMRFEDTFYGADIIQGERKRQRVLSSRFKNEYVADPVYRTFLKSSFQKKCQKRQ

Measured: IC50

CC1(C)CCN(C(=O)c2cc3nccc(C(=O)O)c3[nH]2)CC1
< 100 nM: all assays above
